From PubChem BioAssay (NCI)
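Values below derive from 48-hour exposures of cells grown in 96-well plates, with endpoints linearly interpolated between the two concentrations bracketing the appropriate inhibition level. TGI marks complete inhibition of growth.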

Experiments:
Test in all cases: DTP human tumour cell line panel, 48 h
SW-620 colon = system: SW-620 colon
KM12 colon = system: KM12 colon
OVCAR-8 ovarian = system: OVCAR-8 ovarian
IGROV1 ovarian = system: IGROV1 ovarian
HT29 colon = system: HT29 colon
SNB-19 CNS = system: SNB-19 CNS
RXF-631 renal = system: RXF-631 renal
MALME-3M melanoma = system: MALME-3M melanoma
OVCAR-4 ovarian = system: OVCAR-4 ovarian
U251 CNS = system: U251 CNS
TK-10 renal = system: TK-10 renal
CAKI-1 renal = system: CAKI-1 renal
M19-MEL melanoma = system: M19-MEL melanoma
LXFL 529 NSCLC = system: LXFL 529 NSCLC
NCI-H226 lung = system: NCI-H226 lung
DMS 114 small cell lung = system: DMS 114 small cell lung
UACC-257 melanoma = system: UACC-257 melanoma
SNB-78 CNS = system: SNB-78 CNS
SNB-75 CNS = system: SNB-75 CNS
SK-MEL-28 melanoma = system: SK-MEL-28 melanoma
A498 renal = system: A498 renal
MOLT-4 leukemia = system: MOLT-4 leukemia
CCRF-CEM leukemia = system: CCRF-CEM leukemia
K-562 leukemia = system: K-562 leukemia
SK-MEL-2 melanoma = system: SK-MEL-2 melanoma
RXF 393 renal = system: RXF 393 renal
OVCAR-3 ovarian = system: OVCAR-3 ovarian
HOP-92 NSCLC = system: HOP-92 NSCLC
DLD-1 colon = system: DLD-1 colon
HCT-116 colon = system: HCT-116 colon
HOP-62 NSCLC = system: HOP-62 NSCLC
SF-539 CNS = system: SF-539 CNS
UACC-62 melanoma = system: UACC-62 melanoma
COLO 205 colon = system: COLO 205 colon
786-0 renal = system: 786-0 renal
SN12C renal = system: SN12C renal
SF-268 CNS = system: SF-268 CNS
KM20L2 colon = system: KM20L2 colon
OVCAR-5 ovarian = system: OVCAR-5 ovarian
A549 NSCLC = system: A549 NSCLC
EKVX NSCLC = system: EKVX NSCLC
M14 melanoma = system: M14 melanoma
UO-31 renal = system: UO-31 renal
NCI-H460 lung = system: NCI-H460 lung
HOP-18 NSCLC = system: HOP-18 NSCLC
LOX IMVI melanoma = system: LOX IMVI melanoma
XF 498 CNS = system: XF 498 CNS
NCI-H522 lung = system: NCI-H522 lung
NCI-H23 lung = system: NCI-H23 lung
SK-MEL-5 melanoma = system: SK-MEL-5 melanoma
HL-60(TB) leukemia = system: HL-60(TB) leukemia
HCC-2998 colon = system: HCC-2998 colon
RPMI-8226 leukemia = system: RPMI-8226 leukemia
SK-OV-3 ovarian = system: SK-OV-3 ovarian
SF-295 CNS = system: SF-295 CNS

Nc1ccccc1C(=O)/C=C/c1ccccc1O
TGI (SW-620 colon): > 100 µM | TGI (KM12 colon): > 100 µM | TGI (OVCAR-8 ovarian): > 100 µM | TGI (IGROV1 ovarian): > 100 µM | TGI (HT29 colon): > 100 µM | TGI (SNB-19 CNS): > 100 µM | TGI (RXF-631 renal): > 100 µM | TGI (MALME-3M melanoma): > 100 µM | TGI (OVCAR-4 ovarian): > 100 µM | TGI (U251 CNS): > 100 µM | TGI (TK-10 renal): > 100 µM | TGI (CAKI-1 renal): > 100 µM | TGI (M19-MEL melanoma): > 100 µM | TGI (LXFL 529 NSCLC): > 100 µM | TGI (NCI-H226 lung): > 100 µM | TGI (DMS 114 small cell lung): > 100 µM | TGI (UACC-257 melanoma): 53 µM | TGI (SNB-78 CNS): > 100 µM | TGI (SNB-75 CNS): 68.9 µM | TGI (SK-MEL-28 melanoma): > 100 µM | TGI (A498 renal): > 100 µM | TGI (MOLT-4 leukemia): > 100 µM | TGI (CCRF-CEM leukemia): > 100 µM | TGI (K-562 leukemia): 93.4 µM | TGI (SK-MEL-2 melanoma): > 100 µM | TGI (RXF 393 renal): > 100 µM | TGI (OVCAR-3 ovarian): > 100 µM | TGI (HOP-92 NSCLC): 81.6 µM | TGI (DLD-1 colon): > 100 µM | TGI (HCT-116 colon): > 100 µM | TGI (HOP-62 NSCLC): > 100 µM | TGI (SF-539 CNS): > 100 µM | TGI (UACC-62 melanoma): > 100 µM | TGI (COLO 205 colon): > 100 µM | TGI (786-0 renal): > 100 µM | TGI (SN12C renal): > 100 µM | TGI (SF-268 CNS): > 100 µM | TGI (KM20L2 colon): > 100 µM | TGI (OVCAR-5 ovarian): > 100 µM | TGI (A549 NSCLC): > 100 µM | TGI (EKVX NSCLC): > 100 µM | TGI (M14 melanoma): > 100 µM | TGI (UO-31 renal): > 100 µM | TGI (NCI-H460 lung): > 100 µM | TGI (HOP-18 NSCLC): > 100 µM | TGI (LOX IMVI melanoma): > 100 µM | TGI (XF 498 CNS): > 100 µM | TGI (NCI-H522 lung): > 100 µM | TGI (NCI-H23 lung): > 100 µM | TGI (SK-MEL-5 melanoma): > 100 µM | TGI (HL-60(TB) leukemia): 58.8 µM | TGI (HCC-2998 colon): > 100 µM | TGI (RPMI-8226 leukemia): 78.4 µM | TGI (SK-OV-3 ovarian): > 100 µM | TGI (SF-295 CNS): > 100 µM
